Patent US20260347399A1, “BRAIN PENETRATING PEPTIDES AND METHODS OF USE” (priority 2022, published 2026)
“Also recorded” adds a separate entry of the source. Ends that are not written are not given here.

Tests used:
WT GBM = assay: In vitro phage binding to cells; type: cell-based, mouse; details: 4 °C, 1 h
Protocol: (§1) To assess the binding of Cerepep phage, the cells were cultured in 24-well plates on polylysine coated glass coverslips until 80-90% confluency. The cells were incubated with Cerepep or control insertless peptide-phage at a final concentration of 5×10^7 pfu in 1 ml of DMEM+BSA (1%) at 4 °C for 1 h on a rocking platform. The wells were washed 4 times with 1 ml of DMEM+BSA (1%), the cells were lysed in 1 ml LB+NP40 and the amount of phage bound to the cells was determined by titering.
(§2) Binding of SRRVISRAKLAAAL (SEQ ID NO:9) phage to a panel of different cell lines was studied in vitro.

Neuro2A = assay: In vitro phage binding to cells; type: cell-based, mouse; details: 4 °C, 1 h
Protocol: as §1, §2

Neuro2A cells = assay: In vitro AgNP binding and internalization; type: cell-based, mouse; details: pre-incubated with 100 μM free peptide, 1 h, 37 °C
Protocol: To assess the binding and uptake of silver nanoparticles functionalized with Cerepep, Neuro2A were cultured in 24-well plates on polylysine coated glass coverslips until 80-90% confluency. Biotinylated Cerepep peptide or biotin as a non-targeted control and CF555 dye were conjugated to neutravidin-AgNPs prepared as described previously (Tobi et al., 2021). Some samples were pre-incubated with 100 μM Cerepep peptide (Ac-SERVISRAKLAAAL-OH (SEQ ID NO:9), where Ac-acetylation) at 37 °C for 1 h to assess whether the binding and internalization of particles is peptide-dependent. 10 μl (OD=100) of CP-AgNPs or control biotin-AgNPs were added to cells in 500 μl of media and incubated at 37 °C for 1h. In some samples, the cell surface-bound AgNPs were removed with a freshly prepared etching solution containing 10 mM of Na2S2O3 and K3Fe(CN)6 in PBS, which was applied for 3 min. All the samples were washed with DPBS to remove unbound AgNPs. The cells were fixed in methanol, stained with DAPI and analyzed with confocal microscopy as described above.
Next, the interaction of cultured Neuro2A cells with neutravidin-AgNPs labeled with NHS-CF555 dye and functionalized with biotinylated SRRVISRAKLAAAL (SEQ ID NO: 9) (CP-AgNPs) was tested.

mouse brain = assay: In vivo phage display with CX4CYX library
Protocol: In vivo phage display with CX4CYX library was performed in three selection rounds. Phage library was injected intravenously to Balb/c mice and allowed to circulate for one hour. After circulation, the animals were anesthetized and perfused intracardially with acid and detergent buffers. Brain and control organs were collected and homogenized in 1% NP40-LB. Bound phages were rescued by amplification in E. coli and their genomic DNA was sequenced by Ion Torrent next generation DNA sequencing system.
A novel phage library CX4CYX was constructed based on the alanine-leucine screen to find new brain homing peptides). This knowledge directed us to construct a novel phage library CX4CYX (X—any amino acid), where Cys1, Cys6 and Tyr7 remained in their intact positions, and the four amino acid variable-domain laid between the cysteines, and one amino acid variability after Tyr7. Three rounds of phage bio-panning was performed to allow enrichment of peptides in the brain. Again acid and detergent buffers were used for perfusion to remove non-specifically bound phages from the brain after systemic administration of phage library (round 1) and recovered brain phage pools (round 2 and 3). HTS reads from round 1 to round 3 indicated decent enrichment of in-frame peptides in the brain (Table 6).

[1] = system: WT-GBM, VEGFko, U87MG or NCH421k GBM; assay: CVG peptide-phage homing in glioblastoma (four models); type: in vivo, mouse; details: peptide-phage i.v., 1 h
Protocol: To assess homing of CVG peptide in glioblastoma, CVGTNCY (SEQ ID NO:2) peptide-phage was injected iv into mice bearing either WT-GBM, VEGFko, U87MG or NCH421k GBM, and to mice without a tumor. At one hour time point mice were perfused, brains and control organs collected and titered. […] (FIGS. 17A-17B) Distribution of CVG peptide in GBM and brain parenchyma was also assessed. CVGTNCY (SEQ ID NO:2) peptide or its scrambled version (CVYTCNG; (SEQ ID NO: 68)) was injected iv into glioma bearing mice, after 1 hour circulation mice were perfused and tissues of interest snap-frozen in liquid nitrogen.

brain tissue homogenate = assay: Peptide-phage binding to brain tissue homogenate ex vivo; set-up: species or system mouse
Reelin = assay: Peptide-phage binding on ELISA plate; set-up: species or system human
Protocol: Reelin protein (#8546-MR-050; R&D Systems), NRP-1 b1b2 (wt and mutant) or 5% BSA was immobilized on Costar 96-Well ELISA plate (#3590, Corning Life Sciences, Tewksbury, MA, USA). The multiwell plates were coated with 20 μg/ml recombinant protein in 100 μl of PBS overnight at +4 °C, followed by blocking with 1% bovine serum albumin (BSA) in PBS overnight at +4 °C. The phage (5×10^8 pfu in 100 μl of PBS-BSA) was incubated overnight at +4 °C, followed by 6 washes with PBS containing 1% BSA and 0.1% Tween-20 (washing buffer) to remove background phages. BLT5615 OD600=0.5 containing 2 mM IPTG was used to recover the phages and determine the titer of samples.
Next, an affinity chromatography was performed to identify a receptor of the CVGTNCY (SEQ ID NO:2), and selected a receptor candidate, which is a secreted extracellular matrix protein Reelin. CVGTNCY (SEQ ID NO:2) binding to Reelin protein was tested by cell free method on ELISA plate. Recombinant human Reelin protein (Ser1221-Gln2666; 163 kDa) was used to coat the ELISA plate and the CVGTNCY (SEQ ID NO:2) peptide-phage was allowed to bind to it. After several washes, the titer of the experiment was determined to rate on the binding efficiency.
Reelin was identified from affinity chromatography proteomics data. […] The binding efficiency was evaluated based on the titer (PFU/ml) of each sample. […]

binding to Reelin (Reelin) | Substance | binding of peptide-phage, fold over insertless phage (WT GBM) | binding of peptide-phage, fold over insertless phage (Neuro2A) | effect of free peptide on binding and internalization of CP-AgNPs (Neuro2A cells) | R1 reads (mouse brain; round 1) [reads] | R3 reads (mouse brain; round 3) [reads] | reads in the brain compared to CAGALCY (mouse brain; round 3, vs CAGALCY) | R3 > R1 (ratio of sequencing reads between round 3 and round 1) (mouse brain; round 3 / round 1) | PFU per mg of GBM vs normal brain [1] | ratio of CVG over G7 in GBM vs normal brain [1] | binding to brain tissue homogenate ex vivo in the presence of whole blood (brain tissue homogenate; with blood sample, p<0.05) | binding to brain tissue homogenate ex vivo (brain tissue homogenate; without blood)
– | SRRVISRAKLAAAL [Cerepep, SRRVISRAKLAAAL] | at least 50 fold | at least 50 fold | abolished | – | – | – | – | – | – | – | –
specific binding | CVGTNCY | – | – | – | 12 | 37038 | about 40 times | 3087 | greater than normal brain tissue | lower than in normal brain | significantly increase binding | no binding was detected; also recorded: significantly disrupted
